From patent publication US11661423B2, “Heterocyclic compounds as RET kinase inhibitors” (Cancer Research Technology Limited, priority 2016, dated 2023)

These compounds were tested against RET (Homo sapiens (Human), UniProt P07949) (assay: RET enzyme assay (CisBio HTRF kinEASE)).
Type: biochemical

Chain of RET (P07949 29-1114): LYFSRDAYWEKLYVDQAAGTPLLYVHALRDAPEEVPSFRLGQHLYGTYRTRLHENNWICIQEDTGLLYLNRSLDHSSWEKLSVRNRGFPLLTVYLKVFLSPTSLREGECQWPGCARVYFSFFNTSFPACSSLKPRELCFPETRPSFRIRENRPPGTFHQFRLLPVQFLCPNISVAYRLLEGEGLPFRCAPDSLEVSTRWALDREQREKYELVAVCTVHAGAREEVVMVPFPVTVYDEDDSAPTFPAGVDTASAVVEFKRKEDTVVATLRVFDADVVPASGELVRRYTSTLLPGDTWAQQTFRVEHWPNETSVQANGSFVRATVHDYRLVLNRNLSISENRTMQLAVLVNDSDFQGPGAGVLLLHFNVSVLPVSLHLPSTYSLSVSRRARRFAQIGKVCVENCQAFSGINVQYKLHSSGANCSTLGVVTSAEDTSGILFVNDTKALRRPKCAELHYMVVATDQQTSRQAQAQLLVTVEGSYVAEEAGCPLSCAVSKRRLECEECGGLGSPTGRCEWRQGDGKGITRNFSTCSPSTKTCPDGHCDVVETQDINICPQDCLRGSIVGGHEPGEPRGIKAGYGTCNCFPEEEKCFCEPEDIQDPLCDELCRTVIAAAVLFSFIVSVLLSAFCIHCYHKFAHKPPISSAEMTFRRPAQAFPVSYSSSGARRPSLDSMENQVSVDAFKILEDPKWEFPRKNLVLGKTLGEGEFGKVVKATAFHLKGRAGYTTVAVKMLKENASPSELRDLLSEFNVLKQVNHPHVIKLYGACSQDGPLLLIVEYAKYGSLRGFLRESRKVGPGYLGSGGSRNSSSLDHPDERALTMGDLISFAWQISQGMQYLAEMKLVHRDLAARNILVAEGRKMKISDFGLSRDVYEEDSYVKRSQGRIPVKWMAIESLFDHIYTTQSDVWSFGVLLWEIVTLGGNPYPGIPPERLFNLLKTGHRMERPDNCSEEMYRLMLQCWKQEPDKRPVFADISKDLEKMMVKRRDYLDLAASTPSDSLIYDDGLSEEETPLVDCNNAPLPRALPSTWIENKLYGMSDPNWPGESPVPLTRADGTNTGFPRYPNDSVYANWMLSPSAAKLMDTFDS

Activity in the assays described in the Examples section, did not exhibit the desired activity:
Nc1ncnc2c1c(-c1[nH]c3ncccc3c1Cl)nn2CC(=O)O [2-(4-amino-3-(3-chloro-1H-pyrrolo[2,3-b]pyridin-2-yl)-1H-pyrazolo[3,4-d]pyrimidin-1-yl)acetic acid]
Nc1ncnc2c1c(-c1[nH]c3ccccc3c1Cl)nn2CC1CCNC1 (centres unmarked) [3-(3-chloro-1H-indol-2-yl)-1-(pyrrolidin-3-ylmethyl)-1H-pyrazolo[3,4-d]pyrimidin-4-amine]
CC(C)(C)n1nc(-c2cc3ncccc3[nH]2)c2c(N)ncnc21 [1-tert-butyl-3-(1H-pyrrolo[3,2-b]pyridin-2-yl)pyrazolo[3,4-d]pyrimidin-4-amine]
Cn1nc(-c2[nH]c3ncccc3c2Cl)c2c(N)ncnc21 [Example 65, 3-(3-Chloro-1H-pyrrolo[2,3-b]pyridin-2-yl)-1-methyl-pyrazolo[3,4-d]pyrimidin-4-amine]
CC(C)CCn1nc(-c2[nH]c3ccccc3c2Cl)c2c(N)ncnc21 [3-(3-Chloro-1H-indol-2-yl)-1-isopentyl-1H-pyrazolo[3,4-d]pyrimidin-4-amine]
